Data from BindingDB's records for patent US20240059711 (University of Michigan, 2024).

Molecular target: Protein cereblon (Homo sapiens, UniProt Q96SW2)
Assay: Cereblon Binding Assay
Description: The binding to cereblon (CRBN) was determined using the Cereblon Binding Kit (Cisbio, #64BDCRBNPEG) following the manufacturer's instruction. Briefly, serially diluted compounds were incubated with GST-tagged wild-type human CRBN protein, XL665-labelled Thalidomide and Europium Cryptate labelled GST antibody at room temperature for about 3 hours. Time Resolved Fluorescence Resonance Energy Transfer (TR-FRET) measurements were acquired on a CALRIOstar plate reader with MARS data analysis software (BMG Labtech), with the following settings: 665/10 nm and 620/10 nm emission, 60 μs delay and 400 μs integration. The TR-FRET ratio was taken as the 665/620 nm intensity ratio.

Sequence of Protein cereblon (Q96SW2 whole entry): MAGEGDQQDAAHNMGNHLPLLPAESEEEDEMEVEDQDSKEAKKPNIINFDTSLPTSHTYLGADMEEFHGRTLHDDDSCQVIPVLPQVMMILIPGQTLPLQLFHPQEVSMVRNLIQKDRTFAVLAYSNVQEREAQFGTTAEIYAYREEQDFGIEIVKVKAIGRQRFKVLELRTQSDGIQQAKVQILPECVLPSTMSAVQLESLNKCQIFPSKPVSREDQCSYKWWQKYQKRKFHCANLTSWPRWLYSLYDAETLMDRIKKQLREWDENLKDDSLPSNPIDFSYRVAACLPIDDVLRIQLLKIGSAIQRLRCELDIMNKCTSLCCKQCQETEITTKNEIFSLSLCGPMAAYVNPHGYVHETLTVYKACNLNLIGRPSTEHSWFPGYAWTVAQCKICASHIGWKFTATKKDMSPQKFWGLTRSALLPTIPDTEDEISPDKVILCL

Row | Compound | IC50
1 | O=C1CCC(N2Cc3c(ccc4c3O[C@@H](COCc3ccccc3)CO4)C2=O)C(=O)N1 (some centres not stated) [US20240059711, Compound B9] | 0.58 µM
2 | O=C1CCC(N2Cc3c(ccc4c3O[C@H](COCc3ccccc3)CO4)C2=O)C(=O)N1 (some centres not stated) [US20240059711, Compound B10] | 0.8 µM
